Values quoted from earlier work in patent US20110135768A1, “DIHYDRO-ISOALPHA ACID AND ACACIA NILOTICA EXTRACT BASED COMPOSITIONS AND METHODS FOR WEIGHT MANAGEMENT” (Metaproteomics, LLC, priority 2009, published 2011).
Ends that are not written are not given here.

Settings: rats, intra-cerebroventricular administration

## GLP-1: glucagon-like peptide-1, a 30 amino acid peptide derived from proglucagon gene (HAEGTFTSDVSSYLEGQAAKEFIAWLVKGR; ends and bridges not checked; UniProt P01275 98-127, looked up)
  body weight: reduce
  eating: inhibit
